One data set has as its target T1, thromboxane receptor (Homo sapiens, UniProt P21731).
T1 construct: aggregating human, citrated, platelet-rich plasma; from tissue; host or cells: human platelets (citrated platelet-rich plasma)
T1 sequence (P21731 1-343): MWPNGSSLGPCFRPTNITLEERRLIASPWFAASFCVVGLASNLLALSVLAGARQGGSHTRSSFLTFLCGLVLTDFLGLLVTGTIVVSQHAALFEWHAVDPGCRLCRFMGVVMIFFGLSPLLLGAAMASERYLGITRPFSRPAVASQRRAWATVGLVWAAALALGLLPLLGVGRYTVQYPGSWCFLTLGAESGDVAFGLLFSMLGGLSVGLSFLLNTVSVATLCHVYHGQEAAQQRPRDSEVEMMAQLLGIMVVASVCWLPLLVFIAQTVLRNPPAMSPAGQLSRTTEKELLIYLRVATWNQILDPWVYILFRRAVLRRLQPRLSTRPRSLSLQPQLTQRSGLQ
Put plainly: test (b): blood platelet aggregation, antagonism of U46619 in citrated platelet-rich plasma. The data set is classed as cell-based. The conditions noted are these: Example 2, unit inferred. From the text:
(b) a blood platelet aggregation test based on that described by Born (Nature, 1962, 194, 927-929) and involving:
(i) aggregating human, citrated, platelet-rich plasma by addition of the TXA2 mimetic agent U46619 so that a dose-response curve is generated;
(ii) generating a dose-response curve for U46619 stimulated platelet aggregation in the presence of increasing amounts of test compound (generally in the range 10^-5 M to 10^-10 M); and
(iii) calculating a KB value indicating potency of TXA2 antagonism for the test compound, averaged over several concentrations, from the calculated 50% response value for U46619 aggregation in the presence and absence of test compound; or […]

Data set [1] concerns the target T2, TXA2 synthase (Homo sapiens, UniProt P24557).
T2 construct: using a human platelet microsomal TXA2 synthase preparation; from tissue; host or cells: human platelet microsomes
T2 sequence (P24557 1-533): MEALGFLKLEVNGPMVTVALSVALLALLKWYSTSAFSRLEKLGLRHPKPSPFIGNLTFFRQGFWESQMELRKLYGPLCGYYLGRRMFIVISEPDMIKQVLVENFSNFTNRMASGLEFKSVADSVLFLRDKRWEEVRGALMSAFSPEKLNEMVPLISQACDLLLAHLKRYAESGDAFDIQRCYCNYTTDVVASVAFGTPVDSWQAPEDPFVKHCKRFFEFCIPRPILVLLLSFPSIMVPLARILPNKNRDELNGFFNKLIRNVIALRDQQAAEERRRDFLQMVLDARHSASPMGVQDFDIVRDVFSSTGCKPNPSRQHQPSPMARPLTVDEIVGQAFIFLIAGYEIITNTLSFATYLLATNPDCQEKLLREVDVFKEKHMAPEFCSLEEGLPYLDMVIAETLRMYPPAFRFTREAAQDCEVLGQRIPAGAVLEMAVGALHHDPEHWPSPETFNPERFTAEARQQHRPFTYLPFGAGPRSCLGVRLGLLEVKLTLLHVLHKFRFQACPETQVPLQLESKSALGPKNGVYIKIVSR
Kind of data set: test (e): in vitro inhibition of human platelet microsomal TXA2 synthase (conversion of [1-^14 C]arachidonic acid to TXB2). The data set is classed as biochemical.

For data set [2], the system named is TXA2 synthase. Kind of data set: test (f): TXB2 production in blood samples from dosed rats. The data set is classed as in vivo, rat. The conditions noted are these: oral dose of 25 mg/kg, up to 5 hours. Here is the method: The samples treated with anti-coagulant are first incubated at 37° C. with collagen (at about 100 micro M), then mixed with the cyclooxygenase inhibitor indomethacin (at about 10^-3 M), centrifuged and the level of the TXA2 metabolite, TXB2, determined by a standard radioimmunoassay technique. By comparison of the amount of TXB2 present in the plasma from animals dosed with test compound with that in the plasma of a control group dosed with placebo, the TXA2 synthase inhibitory properties may be assessed.

The nature of data set [3]: observable signs of toxicity in test (f), rats. The data set is classed as in vivo, rat. As to conditions: oral dose of 25 mg/kg.

As a reminder, the Kb is the affinity of an antagonist, worked out from how it opposes an agonist. Higher therefore signals a less potent antagonist. A word on the IC50: it is the concentration at which inhibition is half-maximal. A low value points to higher potency. At thromboxane receptor, `O=C(O)CC/C=C\C[C@@H]1CO[C@H](c2ccccc2Cl)O[C@@H]1c1cccnc1` (relative stereo) [Example 2, 4(Z)-6-[(2,4,5-cis)-2-(2-chlorophenyl)-4-(3-pyridyl)-1,3-dioxan-5-yl]hexenoic acid] returned a Kb of 650 nM. On TXA2 synthase [1], this compound gave an IC50 of 48 nM. Moreover, the “inhibition of TXB2 production” value with TXA2 synthase [2] is reported as “essentially complete inhibition of TXB2 production”. Besides, the “observable signs of toxicity” value in data set [3] is reported as “without any observable signs of toxicity”.

The values are drawn from patent US5166213A, “4-pyridyl substituted-1,3-dioxane compounds” (Imperial Chemical Industries PLC, priority 1988, dated 1992).
